Experiments:
[1] = system: M-07e cells which endogenously express human c-KIT; assay: M-07e cellular assay: SCF-mediated cell proliferation (CellTiter Glo); assay type: cell-based; details: 72 h, SCF-mediated proliferation of M-07e cells
Experimental: M-07e cells (Creative Bioarray, CSC-C0249) which endogenously express human c-KIT were used to evaluate the effect of compounds on stem cell factor (SCF)-mediated cell proliferation. M-07e cells were cultured in growth media (RPMI+10% FBS+1% penicillin/streptomycin+10 ng/mL GM-CSF) at 5E5-1.5E6 cells/mL, replenishing media every 3-4 days. 1.5E4 cells were seeded per well in 384 well tissue culture treated plates in […] assay media (RPMI+10% FBS+1% penicillin/streptomycin) without growth factor stimulation and incubated at 37° C. in a CO2 humidity-controlled incubator. Twenty-four hours later, three-fold serially diluted test compounds in media containing SCF (at the previously determined EC90) were added to the plated M-07e cells and incubated for an additional 72 hours. Cell viability was determined by adding 25 μL CellTiter Glo (Promega) to the cells and the luminescence was measured using a Perkin Elmer Envision plate reader. The EC50 was determined using GraphPad Prism. Percent cell growth was determined after normalizing the curve to the mean RLU high control (no compound control wells) at 100% and the mean RLU low control (no SCF control wells) at 0%.

[2] = biological target: T1, Recombinant human c-KIT kinase (Homo sapiens, UniProt P10721); assay: c-KIT kinase chemiluminescence assay (ADP-Glo); assay type: biochemical; details: ATP 50 μM
T1 construct: purchased Promega V4498
Experimental: The c-KIT Kinase Enzyme System (V4498) and ADP-Glo™ Kinase Assay kit (V6930) were purchased from Promega (Madison, WI). DMSO (D2650) was purchased from Sigma-Aldrich (Burlington, MA).
c-KIT Kinase Chemiluminescence Assay:
Kinase Reaction: The kinase assay was based on the recommended protocol by c-KIT Kinase Enzyme System from Promega. Recombinant human c-KIT kinase in 3 μL of assay buffer (40 mM Tris pH 7.5, 20 mM MgCl2, 0.1 mg/mL BSA and 50 μM DTT) was added to the test or high control wells and 3 μL of assay buffer was added to the low control wells. The microplate was centrifuged at 800 rotations per minute (rpm) for 60 s and incubated at room temperature (RT) for 30 min. Next, 2 μL of buffered ATP and polyEY substrate solution was added to all wells. The microplate was centrifuged at 800 rpm for 60 s and incubated at RT for 2 h.
ADP detection with ADP-Glo™ Kinase Assay: After the kinase reaction incubation, 5 μL of ADP-Glo™ reagent was added to all wells. The microplate was centrifuged at 800 rpm for 60 s and incubated at RT for 40 min. Ten microliter (10 μL) of Kinase Detection Reagent (Luciferin-Luciferase system) was then added to all wells. The microplate was centrifuged at 800 rpm for 60 s and incubated at RT for 60 min. Kinase activity was measured as an increase in luminescence at RT in an Envision plate reader equipped with 560 nm filters and operating in endpoint mode.
Data Analysis: Endpoint chemiluminescence from high and low control wells were used to calculate normalized c-KIT activity at various concentrations of test compounds. The normalized activities were fitted to inhibitor-versus-normalized response fit in GraphPad Prism 7 to determine half-maximal inhibitory concentration (IC50) and hill coefficient values (H).
Where I is the inhibitor concentration and H is the Hill coefficient.

T1 sequence (P10721 544-976 limits assumed): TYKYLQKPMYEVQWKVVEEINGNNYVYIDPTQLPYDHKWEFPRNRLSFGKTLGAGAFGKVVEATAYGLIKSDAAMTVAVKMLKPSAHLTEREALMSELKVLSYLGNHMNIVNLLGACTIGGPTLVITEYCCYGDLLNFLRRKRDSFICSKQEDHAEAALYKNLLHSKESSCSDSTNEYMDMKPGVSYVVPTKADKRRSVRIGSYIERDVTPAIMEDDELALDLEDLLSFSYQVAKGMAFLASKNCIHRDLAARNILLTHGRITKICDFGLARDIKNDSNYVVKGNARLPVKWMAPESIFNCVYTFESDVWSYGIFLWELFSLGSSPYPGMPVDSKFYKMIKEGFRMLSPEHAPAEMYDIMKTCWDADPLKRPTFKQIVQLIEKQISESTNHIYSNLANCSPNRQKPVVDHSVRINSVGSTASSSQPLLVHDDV

| Compound | IC50 [2] [nM] | EC50 [1] [nM] |
| --- | --- | --- |
| Cc1ncc(-c2noc([C@H]3C[C@@H]3C(F)F)n2)cc1NC(=O)c1ccc(N)nc1 [Example 401] | > 1000 | 100 to 1000 |
| Cc1ncc(-c2nnn(CC(C)(C)C#N)n2)cc1NC(=O)c1cnn2ccc(N3CC4(C3)CC(O)(C(F)F)C4)cc12 [Example 383] | 100 to 1000 | 100 to 1000 |
| Cc1ncc(-c2noc(C3C[C@@H]3F)n2)cc1NC(=O)c1cnn2ccc(-c3cn(C[C@H](O)C(C)(C)O)nc3C3CC3)cc12 (stereo partly drawn) [Example 406] | < 100 | < 100 |
| Cc1ncc(-c2noc([C@H]3C[C@@H]3C(F)F)n2)cc1NC(=O)c1cnn2ccc(-c3c(C)nc(N)nc3C)cc12 [Example 391] | > 1000 | > 1000 |

More lines, main results first:

| IC50 [2] [nM] | Compound | EC50 [1] [nM] |
| --- | --- | --- |
| < 100 | Cc1ccc(-c2noc([C@H]3C[C@@H]3F)n2)cc1NC(=O)c1cnc(-c2ccc3nn(CC(C)(C)O)c(C)c3c2)o1 [Example 21a] | < 100 |
| 100 to 1000 | Cc1ncc(-c2noc([C@H]3C[C@@H]3F)n2)cc1NC(=O)c1cnc(-c2ccc3nn(CC(C)(C)O)c(C)c3c2)o1 [Example 23a] | 100 to 1000 |

Source: patent US20250304600A1, “PHARMACEUTICAL COMPOUNDS AND COMPOSITIONS AS c-KIT KINASE INHIBITORS” (Enanta Pharmaceuticals, Inc., priority 2023, published 2025)
